These results are taken from US9273101B2, “Functionalized biomaterials for tissue regeneration” (Nanomed3D S.R.L., priority 2011, dated 2016).

In series [1] the test system is murine NSCs. Briefly: Imaging and cell proliferation assay (CellTiter 96 MTS) on assembled hydrogels, murine NSCs. It is filed as cell-based. Particulars: 7 DIV; for cell viability / proliferated cell population (MTS): scaffolds 10 mg/ml, vs control, P<0.005. As to the method: (§1) In vitro tests were performed as previously described (8), in order to assess whether the biomaterials (assembled hydrogels) obtained with the SAPs of the present invention influenced NSCs adhesion, survival and/or differentiation. SAPeptides (30 μl for each well at a concentration of 10 mg/ml) were assembled into 96 multiwells two hours before cell. Cells (at a concentration of 2×10^4 cells/cm^2) were seeded on the top-surface of each assembled scaffold. Initially, cells were cultured with basal medium supplemented with βFGF (10 ng/ml), added to […]. At 3 days in vitro (DIV), βFGF medium was replaced with Leukemia Inhibitory Factor (LIF, Chemicon) (20 ng/ml) and Brain Derived Neurotrophic Factor (BDNF, Peprotech) (20 ng/ml). Fresh medium was added every three days. For both viability and differentiation assays positive and negative controls consisted of Cultrex-BME® substrate (R&D systems) (1:100 dilution in basal medium) and untreated bottom well surfaces respectively. Cell viability was quantified via CellTiter 96® Aqueous Proliferation Assay (Promega) at 7 DIV as recommended in the Promega protocol. After calibrating the linear response between the cell number and absorbance values, proliferated cell populations were quantified (n=5) by using a Vmax microplate reader (Molecular Devices) at 490 nm wavelength. Values, reported as means±standard error of the mean, were blanked to their respective controls consisting of same substrates and cell culture media without cells.

In series [2] the test system is human NSCs. Briefly: Imaging and cell proliferation assay (CellTiter 96 MTS) on assembled hydrogels, human NSCs. It is filed as cell-based. Particulars: 7 DIV; for cell viability / proliferated cell population (MTS): scaffolds 10 mg/ml, vs control, P<0.03. As to the method: as §1
The test system of series [3] is murine NSCs. Kind of series: Immunofluorescence of differentiated NSC progeny on SAP scaffolds, murine. It is filed as cell-based. Particulars: for number of neurons (βIII-Tubulin) obtained / number of oligodendrocytes (GalC/O4) obtained: 1% scaffold, compared to Cultrex positive control. As to the method: as §1
(§2) Immunofluorescence tests were performed for assaying the phenotypes of the differentiated human and murine NSC progenies. In the case of KLP and Ac-KLP just murine NSC have been used. Ac-KLP and KLP scaffolds were prepared at different concentrations in order to display three different stiffness values (viz. 100, 500 and 1000 Pa). This was done to assess the influence of scaffold concentration (and consequently its stiffness) over NSC differentiation. All the other peptides were tested at 1% v/w concentration instead. The following antibodies were used: rabbit polyclonal against GFAP (1:500, DakoCytomation) for astrocytes, mouse monoclonal against βIII-Tubulin (1:500, Covance) for neurons, mouse monoclonal against GalC (1:200, Chemicon) and O4 (1:200, Chemicon) for oligodendrocyes. Secondary Abs were Goat anti Mouse Alexa 488 (1:1000, Molecular Probes), Goat anti Mouse Cy3 (1:1000, Jackson Immunoresearch), Goat anti Rabbit Cy3 (1:1000, Jackson Immunoresearch). Cell nuclei were counterstained with DAPI (Molecular Probes). Quantitative analyses were performed by counting 100-300 cells for each of 9 randomly chosen fields over a total of 3 independent experiments. Phase contrast and fluorescence images of the adhering cells were acquired via Zeiss microscopes Axioplan 2 and ApoTome System at one week after seeding.

Series [4] deals with human NSCs. Kind of series: Immunofluorescence of differentiated NSC progeny on SAP scaffolds, human. It is filed as cell-based. Particulars: 1% scaffold, compared to Cultrex positive control. The protocol: as §1
as §2, with “Cell nuclei were counterstained with DAPI (Molecular Probes).” left out

The nature of series [5]: Rheology of SAPeptide solutions and self-assembled scaffolds. It is filed as physicochemical. To be noted: 1% w/v, 2% w/v and 3% w/v. As to the method:
Rheological properties of the self-assembling peptides of the invention were determined using a controlled stress TA Instruments AR-2000ex rheometer (TA Instruments). A cone-and-plate geometry (acrylic cone diameter, 20 mm; angle, 1°; truncation gap 34 μm) was used. Preliminary strain sweeps were performed for each sample to define the linear viscoelastic region, thus ensuring that moduli were independent of strain. Time sweeps, after addition of PBS (1×) were recorded at 25 C (angular frequency ω=1 Hz) and continued till G′ plateaued. Frequency sweeps, both for peptide water solutions and for self-assembled scaffolds, were performed at 25 C with the instrument in oscillatory mode at controlled strain of 1%. Final strain sweeps was performed at 1 Hz oscillatory frequency and at 25 C: onset point of failure was calculated by linear interpolation and subsequent determination of the intersection of the G′ modes within the linear region and at material failure respectively.

Series [6] relates to murine NSC. Briefly: NSC differentiation on exposure to soluble heptapeptides (immunofluorescence). It is filed as cell-based. To be noted: 12 DIV, Cultrex and Laminin coated wells, peptide 0.1 mg/ml in media, vs untreated NSCs, p<0.05. As to the method:
In vitro tests were performed as previously described (8), in order to assess whether the heptapeptides obtained of the present invention influence NSCs differentiation.
Murine cells (at a concentration of 2×10^4 cells/cm^2) were seeded in each well (96 multi-well plate) previously coated with Cultrex-BME® substrate (R&D systems) (1:100 dilution in basal medium, overnight incubation) or with Laminin (Roche) (1:5 dilution in PBS 1×, pH 7.4, overnight incubation).
Initially, cells were cultured with basal medium supplemented with βFGF (10 ng/ml), added to enhance neuronal progeny differentiation. At 3 days in vitro (DIV), βFGF medium was replaced with Leukemia Inhibitory Factor (LIF, Chemicon) (20 ng/ml) and Brain Derived Neurotrophic Factor (BDNF, Peprotech) (20 ng/ml). Fresh medium was added every three days. The chosen peptides were dissolved in all cell culture media (but not in the coatings) at a concentration of 0.1 mg/ml.
Immunofluorescence tests were performed for assaying the phenotypes of the differentiated murine NSC progenies. The following antibodies were used: rabbit polyclonal against GFAP (1:500, DakoCytomation) for astrocytes and mouse monoclonal against βIII-Tubulin (1:500, Covance) for neurons. Secondary Abs were Goat anti Mouse Alexa 488 (1:1000, Molecular Probes), Goat anti Mouse Cy3 (1:1000, Jackson Immunoresearch), Cell nuclei were counterstained with DAPI (Molecular Probes). Quantitative analyses were performed by counting 100-300 cells for each of 9 randomly chosen fields over a total of 3 independent experiments.
Values, reported as means±standard error of the mean (FIG. 1A).

“Also recorded” adds a separate entry of the source.

Regarding “Ac-FAQRVPPGGGLDLKLDLKLDLK-CONH2 (Ac-FAQRVPPGGGLDLKLDLKLDLK-NH2)”, in series [1], the “cell morphology, adhesion and spreading on assembled hydrogels” value (from here on “cell morphology, adhesion and spreading”) is “spread and branched cells”; the “cell viability / proliferated cell population (MTS)” value was “cell population was bigger”. Also, in series [2], the “cell morphology, adhesion and spreading” value is “spread and branched cells”; the “cell viability / proliferated cell population (MTS)” value is reported as “cell population was bigger”. In series [3], the “number of neurons (βIII-Tubulin) obtained” value (from here on “number of neurons”) is “significantly higher” and the “number of oligodendrocytes (GalC/O4) obtained” value (“number of oligodendrocytes” for short) was “significantly higher”. For the same substance, in series [4], the “number of neurons” value was “significantly higher” and the “number of oligodendrocytes” value is recorded as “significantly higher”.

Take “Ac-KLPGWSGGGGLDLKLDLKLDLK-CONH2 (Ac-KLPGWSGGGGLDLKLDLKLDLK-NH2)”: in series [5], the “G′ and G″ values at different concentrations” value is “increased with concentration increments”. Further, the “differentiated neurons (βIIITubulin positive cells) in correspondence of stiffness reductions” value in series [3] (scaffold stiffness 100, 500 and 1000 Pa) is recorded as “significant increments”.

For the substance “NH2-FAQRVPPGGGLDLKLDLKLDLK-CONH2 (H-FAQRVPPGGGLDLKLDLKLDLK-NH2)”, in series [1], the “cell morphology, adhesion and spreading” value is “spread and branched cells”; the “cell viability / proliferated cell population (MTS)” value is listed as “significantly fostered cell viability; also recorded: cell population was bigger; also recorded: significantly favored”. In series [2], the “cell morphology, adhesion and spreading” value was “spread and branched cells”; the “cell viability / proliferated cell population (MTS)” value is “significantly fostered cell viability; also recorded: cell population was bigger; also recorded: significantly favored”. Besides, in series [3], the “number of neurons” value is “significantly higher” and the “number of oligodendrocytes” value is listed as “significantly higher”. For the same substance, in series [4], the “number of neurons” value is listed as “significantly higher” and the “number of oligodendrocytes” value is listed as “significantly higher”.

With “NH2-GETRAPL-CONH2 (H-GETRAPL-NH2) [#GET]”, in series [6], the “percentage of differentiated neurons (Beta III Tubulin staining)” value (“percentage of differentiated neurons” for short) is “significant increase”.

Turning to “NH2-HAIYPRH-CONH2 (H-HAIYPRH-NH2) [#HAI]”, the “percentage of differentiated neurons” value in series [6] is recorded as “significant increase”.

For “NH2-KLPGWSG-CONH2 (H-KLPGWSG-NH2) [#KLP]”, the “percentage of differentiated neurons” value in series [6] is reported as “significant increase; also recorded: Highest increase”.
